Measured values taken from the kinase profiling compilation of Christmann-Franck et al. (2016).

How the values were obtained:
Experiment in all cases: KINOMEscan competition binding
Conditions in all cases: compound 10.0 µM
AAK1 (human) = AAK1 (human) (UniProt Q2M2I8)
ACVRL1 (human) = ACVRL1 (human) (UniProt P37023)
AURKC (human) = AURKC (human) (UniProt Q9UQB9)
CAMK2A (human) = CAMK2A (human) (UniProt Q9UQM7)
CAMK2D (human) = CAMK2D (human) (UniProt Q13557)
CDC42BPA (human) = CDC42BPA (human) (UniProt Q5VT25)
CDK18 (human) = CDK18 (human) (UniProt Q07002)
CDK8 (human) = CDK8 (human) (UniProt P49336)
DDR2 (human) = DDR2 (human) (UniProt Q16832)
DYRK1B (human) = DYRK1B (human) (UniProt Q9Y463)
EPHB1 (human) = EPHB1 (human) (UniProt P54762)
[1] = test system: FLT3 (human), P36888 [ITD]
FRK (human) = FRK (human) (UniProt P42685)
FYN (human) = FYN (human) (UniProt P06241)
GSK3B (human) = GSK3B (human) (UniProt P49841)
IKBKB (human) = IKBKB (human) (UniProt O14920)
MAP2K4 (human) = MAP2K4 (human) (UniProt P45985)
MAP4K1 (human) = MAP4K1 (human) (UniProt Q92918)
MAP4K3 (human) = MAP4K3 (human) (UniProt Q8IVH8)
MAPK13 (human) = MAPK13 (human) (UniProt O15264)
MAPK14 (human) = MAPK14 (human) (UniProt Q16539)
MAPK3 (human) = MAPK3 (human) (UniProt P27361)
MARK1 (human) = MARK1 (human) (UniProt Q9P0L2)
MARK4 (human) = MARK4 (human) (UniProt Q96L34)
MKNK1 (human) = MKNK1 (human) (UniProt Q9BUB5)
NEK2 (human) = NEK2 (human) (UniProt P51955)
NTRK2 (human) = NTRK2 (human) (UniProt Q16620)
PAK4 (human) = PAK4 (human) (UniProt O96013)
PIM2 (human) = PIM2 (human) (UniProt Q9P1W9)
RAF1 (human) = RAF1 (human) (UniProt P04049)
RPS6KA4 KD2 (human) = RPS6KA4 KD2 (human) (UniProt O75676)
RPS6KA5 KD1 (human) = RPS6KA5 KD1 (human) (UniProt O75582)
SIK1 (human) = SIK1 (human) (UniProt P57059)
STK11 (human) = STK11 (human) (UniProt Q15831)
STK32C (human) = STK32C (human) (UniProt Q86UX6)
STK36 (human) = STK36 (human) (UniProt Q9NRP7)
SYK (human) = SYK (human) (UniProt P43405)
TLK1 (human) = TLK1 (human) (UniProt Q9UKI8)
TTK (human) = TTK (human) (UniProt P33981)
WEE1 (human) = WEE1 (human) (UniProt P30291)

Chain of MAPK3 (human) (P27361 whole entry, looked up): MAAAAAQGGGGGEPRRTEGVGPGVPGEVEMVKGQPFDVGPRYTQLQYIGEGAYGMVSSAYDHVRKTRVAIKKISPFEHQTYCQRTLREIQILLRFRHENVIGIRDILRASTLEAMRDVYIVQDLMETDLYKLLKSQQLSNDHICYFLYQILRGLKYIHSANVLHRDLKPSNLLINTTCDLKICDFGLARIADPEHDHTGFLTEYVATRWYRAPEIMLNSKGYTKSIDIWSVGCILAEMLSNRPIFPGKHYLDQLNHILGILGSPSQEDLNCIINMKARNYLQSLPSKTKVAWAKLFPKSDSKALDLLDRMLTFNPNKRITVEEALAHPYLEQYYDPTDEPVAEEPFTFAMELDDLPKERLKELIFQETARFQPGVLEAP
Chain of PAK4 (human) (O96013 whole entry, looked up): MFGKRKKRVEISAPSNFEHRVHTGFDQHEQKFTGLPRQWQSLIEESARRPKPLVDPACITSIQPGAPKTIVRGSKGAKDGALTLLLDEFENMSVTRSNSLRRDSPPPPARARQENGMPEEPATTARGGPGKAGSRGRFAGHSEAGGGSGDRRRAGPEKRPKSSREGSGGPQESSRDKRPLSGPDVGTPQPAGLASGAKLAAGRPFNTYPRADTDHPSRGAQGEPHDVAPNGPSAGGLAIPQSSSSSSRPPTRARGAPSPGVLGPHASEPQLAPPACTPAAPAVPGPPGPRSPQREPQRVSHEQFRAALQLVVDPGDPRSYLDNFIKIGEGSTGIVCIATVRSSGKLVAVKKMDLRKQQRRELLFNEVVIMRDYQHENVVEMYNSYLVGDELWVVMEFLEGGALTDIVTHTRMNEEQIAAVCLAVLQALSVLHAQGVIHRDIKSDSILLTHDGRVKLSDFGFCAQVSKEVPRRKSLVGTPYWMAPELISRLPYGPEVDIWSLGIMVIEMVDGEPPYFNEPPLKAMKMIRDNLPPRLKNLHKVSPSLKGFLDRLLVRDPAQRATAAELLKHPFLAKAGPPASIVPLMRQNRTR
Chain of DYRK1B (human) (Q9Y463 whole entry, looked up): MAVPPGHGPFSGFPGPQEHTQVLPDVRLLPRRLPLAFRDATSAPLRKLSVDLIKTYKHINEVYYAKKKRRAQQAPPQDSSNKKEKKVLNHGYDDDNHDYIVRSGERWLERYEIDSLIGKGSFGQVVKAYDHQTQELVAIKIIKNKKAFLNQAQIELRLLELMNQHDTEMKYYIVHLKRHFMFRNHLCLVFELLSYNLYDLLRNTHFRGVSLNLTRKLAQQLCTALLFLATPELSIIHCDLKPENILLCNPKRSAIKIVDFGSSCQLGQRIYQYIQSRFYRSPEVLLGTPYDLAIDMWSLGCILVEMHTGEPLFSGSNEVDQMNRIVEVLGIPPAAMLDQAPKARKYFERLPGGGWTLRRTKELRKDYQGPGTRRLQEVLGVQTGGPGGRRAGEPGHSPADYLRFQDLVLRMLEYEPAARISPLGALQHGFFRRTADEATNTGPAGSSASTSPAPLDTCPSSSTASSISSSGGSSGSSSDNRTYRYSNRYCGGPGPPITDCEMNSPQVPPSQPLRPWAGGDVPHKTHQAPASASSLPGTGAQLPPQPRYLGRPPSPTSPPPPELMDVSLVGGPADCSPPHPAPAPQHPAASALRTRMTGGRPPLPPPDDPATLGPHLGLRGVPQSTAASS
Chain of MAP4K1 (human) (Q92918 whole entry, looked up): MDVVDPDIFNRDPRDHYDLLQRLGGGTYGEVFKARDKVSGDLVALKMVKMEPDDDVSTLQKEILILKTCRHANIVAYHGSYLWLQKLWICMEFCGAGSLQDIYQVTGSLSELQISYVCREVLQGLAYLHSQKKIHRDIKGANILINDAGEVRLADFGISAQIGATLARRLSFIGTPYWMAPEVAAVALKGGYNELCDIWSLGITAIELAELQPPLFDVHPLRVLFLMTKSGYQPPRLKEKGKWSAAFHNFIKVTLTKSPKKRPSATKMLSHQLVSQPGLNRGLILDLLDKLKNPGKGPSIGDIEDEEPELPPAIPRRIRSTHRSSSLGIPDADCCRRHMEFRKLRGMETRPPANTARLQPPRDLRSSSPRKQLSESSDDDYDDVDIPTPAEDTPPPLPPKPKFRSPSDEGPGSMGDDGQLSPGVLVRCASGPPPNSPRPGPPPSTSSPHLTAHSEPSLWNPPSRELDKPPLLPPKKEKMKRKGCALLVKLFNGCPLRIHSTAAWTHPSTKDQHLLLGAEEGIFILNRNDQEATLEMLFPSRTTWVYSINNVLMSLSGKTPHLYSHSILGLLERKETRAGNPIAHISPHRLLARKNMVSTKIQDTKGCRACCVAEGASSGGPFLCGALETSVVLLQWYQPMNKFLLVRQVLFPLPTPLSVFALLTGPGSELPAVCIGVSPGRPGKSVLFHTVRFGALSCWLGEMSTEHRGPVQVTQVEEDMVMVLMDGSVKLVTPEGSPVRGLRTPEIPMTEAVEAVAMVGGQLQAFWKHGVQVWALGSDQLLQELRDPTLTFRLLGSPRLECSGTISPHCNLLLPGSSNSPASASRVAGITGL
Chain of NEK2 (human) (P51955 whole entry, looked up): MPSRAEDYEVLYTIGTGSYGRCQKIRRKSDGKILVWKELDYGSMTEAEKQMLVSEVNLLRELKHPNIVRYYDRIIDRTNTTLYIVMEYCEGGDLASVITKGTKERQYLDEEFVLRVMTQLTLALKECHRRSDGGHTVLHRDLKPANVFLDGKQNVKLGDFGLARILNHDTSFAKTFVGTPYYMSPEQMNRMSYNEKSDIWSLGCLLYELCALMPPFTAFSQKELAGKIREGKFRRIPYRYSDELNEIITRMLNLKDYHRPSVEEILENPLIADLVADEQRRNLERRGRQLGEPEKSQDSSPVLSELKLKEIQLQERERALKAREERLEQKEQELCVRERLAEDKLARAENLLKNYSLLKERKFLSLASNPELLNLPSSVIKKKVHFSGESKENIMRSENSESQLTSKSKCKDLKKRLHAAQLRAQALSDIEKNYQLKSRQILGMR
Chain of DDR2 (human) (Q16832 whole entry, looked up): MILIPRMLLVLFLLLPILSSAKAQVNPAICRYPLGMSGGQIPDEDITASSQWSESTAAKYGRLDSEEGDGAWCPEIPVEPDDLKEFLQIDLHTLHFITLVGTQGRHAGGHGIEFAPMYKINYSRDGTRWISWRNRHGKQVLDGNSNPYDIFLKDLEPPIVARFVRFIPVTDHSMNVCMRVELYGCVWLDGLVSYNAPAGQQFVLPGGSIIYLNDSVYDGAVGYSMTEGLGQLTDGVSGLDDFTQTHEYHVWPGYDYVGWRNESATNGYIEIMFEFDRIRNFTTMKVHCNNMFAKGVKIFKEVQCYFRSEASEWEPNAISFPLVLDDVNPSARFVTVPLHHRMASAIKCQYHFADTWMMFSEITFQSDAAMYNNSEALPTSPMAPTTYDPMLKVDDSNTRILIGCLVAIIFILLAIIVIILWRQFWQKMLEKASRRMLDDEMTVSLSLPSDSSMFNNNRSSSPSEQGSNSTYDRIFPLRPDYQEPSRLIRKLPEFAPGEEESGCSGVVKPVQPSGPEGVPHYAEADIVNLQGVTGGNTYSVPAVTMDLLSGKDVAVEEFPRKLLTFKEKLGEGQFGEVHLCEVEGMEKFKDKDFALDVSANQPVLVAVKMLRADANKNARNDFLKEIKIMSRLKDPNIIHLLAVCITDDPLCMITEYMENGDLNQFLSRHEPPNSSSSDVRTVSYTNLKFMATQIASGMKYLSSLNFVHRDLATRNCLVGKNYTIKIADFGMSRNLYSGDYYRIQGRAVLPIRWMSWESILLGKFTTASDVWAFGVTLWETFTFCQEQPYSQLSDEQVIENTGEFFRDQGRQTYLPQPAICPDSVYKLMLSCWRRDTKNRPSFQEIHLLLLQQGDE
Chain of CDK8 (human) (P49336 whole entry, looked up): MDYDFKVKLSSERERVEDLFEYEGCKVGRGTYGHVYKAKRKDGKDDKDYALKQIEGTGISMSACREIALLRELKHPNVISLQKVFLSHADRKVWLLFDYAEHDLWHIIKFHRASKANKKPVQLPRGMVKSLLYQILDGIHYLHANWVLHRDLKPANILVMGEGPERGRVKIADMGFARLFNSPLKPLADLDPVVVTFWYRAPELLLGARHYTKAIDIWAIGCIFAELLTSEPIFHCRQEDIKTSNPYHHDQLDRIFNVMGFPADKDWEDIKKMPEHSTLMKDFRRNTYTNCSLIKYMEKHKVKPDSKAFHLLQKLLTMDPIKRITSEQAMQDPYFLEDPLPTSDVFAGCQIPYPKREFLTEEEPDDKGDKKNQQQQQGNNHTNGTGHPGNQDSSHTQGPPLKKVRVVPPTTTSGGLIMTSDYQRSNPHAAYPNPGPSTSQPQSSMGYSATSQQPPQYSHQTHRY
Chain of GSK3B (human) (P49841 whole entry, looked up): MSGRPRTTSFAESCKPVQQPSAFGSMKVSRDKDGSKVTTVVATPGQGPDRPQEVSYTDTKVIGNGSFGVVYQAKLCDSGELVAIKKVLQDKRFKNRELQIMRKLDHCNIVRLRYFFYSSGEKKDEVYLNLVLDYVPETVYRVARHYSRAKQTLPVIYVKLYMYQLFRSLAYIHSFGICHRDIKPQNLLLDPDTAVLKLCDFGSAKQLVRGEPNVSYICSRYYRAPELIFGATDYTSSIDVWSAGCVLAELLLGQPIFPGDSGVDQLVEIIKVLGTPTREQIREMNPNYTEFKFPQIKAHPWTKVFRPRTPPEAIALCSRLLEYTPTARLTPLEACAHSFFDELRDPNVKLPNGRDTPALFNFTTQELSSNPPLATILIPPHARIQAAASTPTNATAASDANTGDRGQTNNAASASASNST
Chain of MAPK13 (human) (O15264 whole entry, looked up): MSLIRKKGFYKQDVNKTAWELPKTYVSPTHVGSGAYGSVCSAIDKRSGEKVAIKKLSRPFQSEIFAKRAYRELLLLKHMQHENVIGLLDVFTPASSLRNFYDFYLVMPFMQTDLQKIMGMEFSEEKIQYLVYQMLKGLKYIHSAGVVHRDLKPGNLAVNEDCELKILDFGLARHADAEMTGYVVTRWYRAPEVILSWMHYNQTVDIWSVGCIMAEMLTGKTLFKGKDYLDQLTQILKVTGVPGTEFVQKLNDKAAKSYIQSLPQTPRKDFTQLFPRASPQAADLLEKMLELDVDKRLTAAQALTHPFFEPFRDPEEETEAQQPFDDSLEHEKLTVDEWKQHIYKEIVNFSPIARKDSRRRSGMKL

SMILES	kinase still bound, per cent of control (AAK1 (human))	kinase still bound, per cent of control (ACVRL1 (human))	kinase still bound, per cent of control (AURKC (human))	kinase still bound, per cent of control (CAMK2A (human))	kinase still bound, per cent of control (CAMK2D (human))	kinase still bound, per cent of control (CDC42BPA (human))	kinase still bound, per cent of control (CDK18 (human))	kinase still bound, per cent of control (CDK8 (human))	kinase still bound, per cent of control (DDR2 (human))	kinase still bound, per cent of control (DYRK1B (human))	kinase still bound, per cent of control (EPHB1 (human))	kinase still bound, per cent of control [1]	kinase still bound, per cent of control (FRK (human))	kinase still bound, per cent of control (FYN (human))	kinase still bound, per cent of control (GSK3B (human))	kinase still bound, per cent of control (IKBKB (human))	kinase still bound, per cent of control (MAP2K4 (human))	kinase still bound, per cent of control (MAP4K1 (human))	kinase still bound, per cent of control (MAP4K3 (human))	kinase still bound, per cent of control (MAPK13 (human))	further results
O=C1Nc2ccc(I)cc2/C1=C/c1cc(Br)c(O)c(Br)c1	5.2%	100%	71%	20%	41%	100%	100%	62%	73%	41%	100%	33%	45%	52%	91%	100%	3.4%	71%	100%	100%	kinase still bound, per cent of control (MAPK14 (human)): 36%; kinase still bound, per cent of control (MAPK3 (human)): 100%; kinase still bound, per cent of control (MARK1 (human)): 99%; kinase still bound, per cent of control (MARK4 (human)): 100%; kinase still bound, per cent of control (MKNK1 (human)): 83%; kinase still bound, per cent of control (NEK2 (human)): 100%; kinase still bound, per cent of control (NTRK2 (human)): 55%; kinase still bound, per cent of control (PAK4 (human)): 82%; kinase still bound, per cent of control (PIM2 (human)): 2.1%; kinase still bound, per cent of control (RAF1 (human)): 0.65%; kinase still bound, per cent of control (RPS6KA4 KD2 (human)): 47%; kinase still bound, per cent of control (RPS6KA5 KD1 (human)): 96%; kinase still bound, per cent of control (SIK1 (human)): 83%; kinase still bound, per cent of control (STK11 (human)): 84%; kinase still bound, per cent of control (STK32C (human)): 98%; kinase still bound, per cent of control (STK36 (human)): 14%; kinase still bound, per cent of control (SYK (human)): 78%; kinase still bound, per cent of control (TLK1 (human)): 100%; kinase still bound, per cent of control (TTK (human)): 17%; kinase still bound, per cent of control (WEE1 (human)): 100%
CN(C)C/C=C/C(=O)Nc1cccc(Nc2ncc3c(n2)N(C)c2ccccc2C(=O)N3C)c1	20%	100%	9.2%	32%	62%	100%	100%	100%	11%	100%	90%	9.4%	18%	6.7%	82%	100%	100%	38%	28%	61%	kinase still bound, per cent of control (MAPK14 (human)): 100%; kinase still bound, per cent of control (MAPK3 (human)): 100%; kinase still bound, per cent of control (MARK1 (human)): 4.3%; kinase still bound, per cent of control (MARK4 (human)): 1.5%; kinase still bound, per cent of control (MKNK1 (human)): 38%; kinase still bound, per cent of control (NEK2 (human)): 62%; kinase still bound, per cent of control (NTRK2 (human)): 4%; kinase still bound, per cent of control (PAK4 (human)): 61%; kinase still bound, per cent of control (PIM2 (human)): 100%; kinase still bound, per cent of control (RAF1 (human)): 96%; kinase still bound, per cent of control (RPS6KA4 KD2 (human)): 70%; kinase still bound, per cent of control (RPS6KA5 KD1 (human)): 100%; kinase still bound, per cent of control (SIK1 (human)): 2.7%; kinase still bound, per cent of control (STK11 (human)): 100%; kinase still bound, per cent of control (STK32C (human)): 93%; kinase still bound, per cent of control (STK36 (human)): 100%; kinase still bound, per cent of control (SYK (human)): 50%; kinase still bound, per cent of control (TLK1 (human)): 100%; kinase still bound, per cent of control (TTK (human)): 28%; kinase still bound, per cent of control (WEE1 (human)): 100%
COc1cc(C(=O)NC2CCN(C)CC2)ccc1Nc1ncc2c(n1)N(C1CCCC1)C(C)CC(=O)N2C (stereo not given)	100%	100%	100%	21%	100%	100%	100%	100%	100%	100%	100%	100%	100%	100%	100%	100%	100%	100%	100%	100%	kinase still bound, per cent of control (MAPK14 (human)): 100%; kinase still bound, per cent of control (MAPK3 (human)): 100%; kinase still bound, per cent of control (MARK1 (human)): 100%; kinase still bound, per cent of control (MARK4 (human)): 100%; kinase still bound, per cent of control (MKNK1 (human)): 100%; kinase still bound, per cent of control (NEK2 (human)): 100%; kinase still bound, per cent of control (NTRK2 (human)): 100%; kinase still bound, per cent of control (PAK4 (human)): 100%; kinase still bound, per cent of control (PIM2 (human)): 100%; kinase still bound, per cent of control (RAF1 (human)): 100%; kinase still bound, per cent of control (RPS6KA4 KD2 (human)): 100%; kinase still bound, per cent of control (RPS6KA5 KD1 (human)): 100%; kinase still bound, per cent of control (SIK1 (human)): 100%; kinase still bound, per cent of control (STK11 (human)): 100%; kinase still bound, per cent of control (STK32C (human)): 100%; kinase still bound, per cent of control (STK36 (human)): 100%; kinase still bound, per cent of control (SYK (human)): 100%; kinase still bound, per cent of control (TLK1 (human)): 100%; kinase still bound, per cent of control (TTK (human)): 4.6%; kinase still bound, per cent of control (WEE1 (human)): 100%
